The source of these data is patent US4469631A, “Fusion peptides comprising an expressible bacterial gene and β-endorphin” (The Regents of the University of California, priority 1982, dated 1984).

Test [1] relates to antiserum directed against mouse β-endorphin. As to the kind of experiment: Immunological activity: competition with 125I-labeled human β-endorphin for antiserum (radioimmunoassay). In kind it is binding. The note with it: dilution series of extract, 4° C., 24 hours; FIG. 5. On the procedure:
Immunological activity of β-endorphin produced according to the present invention was measured by its ability to compete with radioactively labeled human β-endorphin for antiserum directed against mouse β-endorphin. The human hormone differs from that of mouse only at position 27, where a tyrosine is present instead of histidine residue. […] Antiserum to mouse β-endorphin was prepared as described by Allen, et al., Proc. Nat'l. Acad. Sci. 75, 4972 (1978). […]
In the assay, a dilution series of β-endorphin sample prepared according to the present invention was incubated with a fixed amount of labeled human endorphin and a fixed amount of antiserum. […] The percentage of radioactivity remaining in the pellet was compared to the total radioactivity determined prior to incubation and plotted as a function of the concentration of the cell extracts.

The test system of test [2] is rat brain opiate receptors. As to the kind of experiment: Receptor binding activity: competitive inhibition of binding of labeled opiate agonist or antagonist to rat brain membranes. The note with it: result in words. The protocol: The opiate receptor preparation was prepared from rat membrane preparation isolated from male Sprague-Dawley rats (200-220 g) killed by decapitation. The brains, except for the cerebellum, were homogenized in 40 volumes of ice-cold Tris-HCl buffer pH 7.7. The homogenates were centrifuged at 600 g for 5 minutes, then the supernatant fluid was centrifuged at 49,000 g at 4° C. for 15 minutes. The pellets were re-suspended in 5 ml of 0.05 M Tris-HCl buffer pH 7.7 and incubated at 37° C. for 30 minutes, then centrifuged at 49,000 g at 4° C. for another 15 minutes. The final pellet from each rat brain was then re-suspended in 40 ml of 0.05 M Tris-HCl buffer pH 7.7 containing 100 μg/ml of Bacitracin and used for the binding assays.
The binding experiments were performed either at 25° C. for 20 minutes or at 0° C. for 3 hours. The reaction mixtures contained 1 ml of the rat membrane preparation as described, 1.5 nM of ^3 H-methionine enkephalinamide (38 Ci/m Mole) or ^3 H-naloxone (25 Ci/m Mole) together with bacterial extracts from pβgal or pβgal-end transformed cultures (4.5 mg protein for enkephalinamide rections and 0.65 μg protein for naloxone reactions). At the end of the binding reaction the mixture was filtered under vacuum over glass fiber filters (Whatman, Clifton, N.J., GH-B filters). […]

Test [3] concerns prostaglandin E1-stimulated adenylate cyclase of NG 108-15 cells. As to the kind of experiment: Inhibition of prostaglandin E1-stimulated adenylate cyclase activity in neuroblastoma-glioma hybrid cell line NG 108-15. The note with it: result in words; for reversal of the adenylate cyclase inhibition by naloxone: naloxone added. The format is biochemical.
The subject of the next test is opiate receptors. Conditions: Li, C. H., et al, Proc. Natl. Acad. Sci. 76, 3276 (1979); cited from earlier work.
In test [4] the test system is prostaglandin E1-stimulated adenylate cyclase of NG 108-15 cells. Conditions: literature; cited from earlier work.

As for “β-endorphin (YGGFMTSEKSQTPLVTLFKNAIIKNAHKKGQ; Beta-endorphin; UniProt P01193 205-235, looked up) [mouse β-endorphin, 31 amino acid polypeptide, released from the bacterial β-galactosidase fusion protein according to the invention]”, in test [1], the “competition with labeled human β-endorphin for antiserum against mouse β-endorphin” value is “immunologically reactive with antiserum raised against mouse endorphin”. Moreover, the “displacement of opiate agonist (enkephalinamide) and opiate antagonist (naloxone) from rat brain opiate receptors” value in test [2] was “effective inhibitor”; in test [2] (listed as Endorphin) it was “displaced both the opiate agonist and the opiate antagonist”. Also, the “inhibition of prostaglandin E1 stimulation of adenylate cyclase activity” value in test [3] was “inhibited the adenylate cyclase activity”; in test [3] (listed as Endorphin), “significant inhibition”. Besides, the figures for the “reversal of the adenylate cyclase inhibition by naloxone” value in test [3] and in test [3] (listed as Endorphin) were “the inhibition was reversed by the addition of naloxone” and “inhibition was reversed by addition of the opiate antagonist naloxone”, respectively.
For “Gly^31 -endorphin (YGGFMTSEKSQTPLVTLFKNAIIKNAYKKGG; Beta-endorphin; UniProt P01189 237-267, looked up, variant E31G) ["super-agonist" endorphin analog described by Li, C; H]”, in the test with opiate receptors, the “opiate agonist potency relative to endorphin” value is given as “more potent opiate agonists than endorphin itself”.
Turning to `CN1CC[C@]23c4c5ccc(O)c4O[C@H]2[C@@H](O)C=C[C@H]3[C@H]1C5` [morphine], the “inhibition of prostaglandin E1 stimulation of adenylate cyclase” value in test [4] is “This stimulation is inhibited by morphine”.
As for Gly^31 -endorphinamide, the “opiate agonist potency relative to endorphin” value with opiate receptors is given as “more potent opiate agonists than endorphin itself”.
In the case of `C=CCN1CC[C@]23c4c5ccc(O)c4O[C@H]2C(=O)CC[C@@]3(O)[C@H]1C5` [naloxone], the “prevention of the inhibitory effect of morphine on stimulated adenylate cyclase” value in test [4] was “the inhibitory affect of morphine can be prevented by naloxone”.
As to Gly^31 -endorphinylglycine, the “opiate agonist potency relative to endorphin” value with opiate receptors is given as “more potent opiate agonists than endorphin itself”.
